Melting point data for 88 molecules are collected here from a melting point compilation (Tetko et al.; mined from patent text by program, amines drawn as free bases though some values may be those of a salt).

In general, melting point refers to the temperature of the solid-liquid transition. On to `O=C(Nc1ccccc1)OCc1cn(-c2cc3cc(C(=O)O)c(=O)[nH]c3cc2C(F)(F)F)cn1`, for which the melting point fell in the range of 178 to 180 °C.
To `Oc1nc(-c2cccnc2)sc1-c1ccccc1` belongs 273 to 276 °C; to `OCc1c[nH]c(Cc2ccccc2)n1`, 134 to 135 °C; to `CC(C)CN1C(=O)CN=C(N2CCN(C)CC2)c2ccccc21`, 134 to 136 °C.
In the case of `O=C(Nc1ccc(F)cc1F)c1cccc(Oc2cccc(Cl)c2)n1` it was 116 to 117 °C; in that of `CCCc1ccc(-c2c3ccccc3c(-c3ccc(CCC)cc3)c3cc(Cl)ccc23)cc1`, 225 to 227 °C; in that of `CCCCCCCCOC(=O)C(N)C=CCP(=O)(O)O` (stereo not drawn), 161 to 162 °C.
In the case of `CC1Oc2cc(F)ccc2NC1=O` (stereo not drawn) it was 166 to 168 °C.
With `CC(C)C(=NSN(C)C(=O)Oc1cccc2c1OC(C)(C)C2)Sc1ccccc1`, the melting point is 104 to 106 °C.
To `Cc1cccc(CC(=O)Nc2cc(Cl)c(Cl)cc2[N+](=O)[O-])c1` belongs 122 to 124 °C; to `CCC(=O)Nc1ccc(C(=O)CC)cc1`, 154 to 155 °C.
Consider `CS(=O)(=O)c1ccc(-c2cc(=O)n(CC(=O)c3ccccc3)nc2-c2ccc(F)cc2)cc1`, for which the melting point was in the range of 178 to 180 °C.
To `Cc1cccc(C)c1C(=O)Nc1cccc2c1CCN(C)C2` belongs 200 to 201 °C.
In the case of `COc1ccc(S(=O)(=O)N(C)c2cccc(-c3ccnc4c([N+](=O)[O-])cnn34)c2)cc1` it was 205 to 206 °C; in that of `COC(=O)c1c(C(C)C)c(S(=O)(=O)c2ccc(O)cc2)c2ccccn12`, 199 °C; in that of `Nc1ncc(-c2ccncc2)cn1`, 180 to 182 °C.
`COc1ccc(CCN(C)CCOc2ccc(NC(=O)c3cccc4c(=O)c5cccc(OC)c5[nH]c34)cc2)cc1OC` yielded a melting point of 190 °C.
To `Cc1c(S(=O)(=O)C[N+](=O)[O-])cc2c(c1C)OC(C)(C)CC2` belongs 98.5 to 99.5 °C.
To `C=C1COc2ccc(C(C)=O)cc2C(Cc2ccccc2)(S(=O)(=O)c2ccccc2)C1` (stereo not drawn) belongs 131 to 132 °C.
To `CSC(C(=O)N(C)C)c1cccc(C(=O)c2ccccc2)c1N` (stereo not drawn) belongs 153 to 155 °C; to `CCCCOc1ccc(/C=C/c2nc3c(c(=O)n(CC)c(=O)n3CC)n2C)cc1`, 123 to 124 °C; to `Cc1c(C)c2c(c(C)c1NC(=O)OC(C)(C)C)C(O)(c1ccc(C(C)C)cc1)C(C)(C)O2` (stereo not drawn), 155 to 157 °C.
With `O=C(Cl)c1ccc(Cl)c(OCCn2cnnn2)c1Cl`, the melting point was 69 to 73 °C.
For the molecule `Cc1cc(-c2cc(C(=O)O)c(=O)n(Cc3ccccc3Cl)n2)ccc1F`, the melting point fell in the range of 185 to 186 °C.
In the case of `Cc1cc([N+](=O)[O-])ccc1NC1CC1` it was 35 to 37 °C; in that of `OCC1OC(n2c(Cl)nc3c(Cl)cc(Cl)cc32)C(O)C1O` (stereo not drawn), 162 °C; in that of `COCc1ccc(C#Cc2ccc3c(c2)C(C)(C)CCC3(C)C)cc1`, 93 to 94 °C.
To `CCOC(=O)CCC1(C)Oc2ccc([N+](=O)[O-])cc2O1` (stereo not drawn) belongs 76 to 78 °C.
For `CCc1noc(-c2ncc3[nH]c4ccc(C5CC=CCC5)cc4c3c2C)n1` (stereo not drawn), the melting point was 247 to 248 °C.
In the case of `COc1cc(COc2nn(-c3ccccc3)cc2/C=C/C(=O)N(C)OC)ccc1OCc1nc(-c2ccco2)oc1C` it was 173 to 174 °C; in that of `COc1ccc2c(c1)C(c1ccc(N)cc1)=Nn1c(nc(C)c1C)C2`, 280 °C.
Consider `CC1(C)CC(N(CCO)c2c([O-])[c+](N(CCO)C3CC(C)(C)NC(C)(C)C3)[c+]2[O-])CC(C)(C)N1`, for which the melting point fell in the range of 309 to 311 °C.
In the case of `CCOC(=O)C(CC#Cc1ccccc1)(NC(C)=O)C(=O)OCC` it was 94 to 96.5 °C; in that of `CCCn1nnn(-c2cc(Cl)c(Cl)cc2Cl)c1=O`, 89 to 90 °C; in that of `CS(=O)(=O)c1cc(C(N)Nc2ccccc2C(=O)Nc2cccc(C(F)(F)F)c2)ccn1` (stereo not drawn), 214 °C.
To `N#CC(Nc1ccc2ccccc2c1)c1c(Cl)cccc1Cl` (stereo not drawn) belongs 94.8 °C; to `CC(=O)Nc1cc(F)ccc1F`, 124 to 125 °C; to `CS(=O)(=O)c1ccc(-c2sc(CCc3ccccc3)nc2-c2ccc(F)cc2)cc1`, 153 to 154 °C.
In the case of `COc1ccc(C#CCO)c2c1c(CCN(C)C)cn2C` it was 101 to 104 °C; in that of `CC(C)(C(=O)O)c1cn2nc(Cl)ccc2n1`, 159 to 161 °C.
`COCc1nc2c(OC)ccc(C(=O)Nc3c(Cl)cncc3Cl)c2[nH]1` had a melting point of 230 to 231 °C.
In the case of `Cc1cc(-c2cccc3[nH]ccc23)nc(N)n1` it was 242 to 244 °C; in that of `OCc1ccc(OCc2ccc(-c3ccccc3)cn2)cc1`, 159 to 160 °C.
To `CCS(=O)(=O)N1CCC(NC(=O)Nc2ccc(OC(F)(F)F)cc2)CC1` belongs 235 to 239 °C.
As to `COc1c(F)c(F)c(N)c2c(=O)c(C(=O)O)cn(C3CC3)c12`, the melting point is 291 to 292 °C.
`Nc1nc(CN2CCN(C(c3ccccc3)c3ccccc3)CC2)cs1` returned a melting point of 156 to 160 °C.
To `Cc1nc2ccccc2cc1NC(=S)N1CCN(c2cc(F)cc(F)c2)CC1` belongs 211 to 213 °C.
Turning to `CCCCN(CCCC)Cc1nc(-c2ncn3c2[C@@H]2CCN2C(=O)c2c(Cl)cccc2-3)no1`, the melting point is 120 to 125 °C.
To `CCOC(=O)C=Cc1ccc(NC(=O)Oc2ccccc2)cc1` belongs 136 to 138 °C; to `O=C(O)c1cccnc1Nc1cccc(Cl)c1`, 197 to 199 °C.
As to `O=C1Nc2ccc3cn[nH]c3c2C1=O`, the melting point was over 300 °C.
To `CC(C)N(CCNC(=O)N1CCCC(S(=O)(=O)c2ccccc2)C1)C(C)C` (stereo not drawn) belongs 82.5 to 84 °C; to `CCOC(=O)c1cccc(Nc2nccc(-c3ccnc(Cl)c3)n2)c1`, 149 to 150 °C; to `CC(C)(C#N)c1ccc(C(=O)Nc2cn3cc(-n4ccnc4)ccc3n2)cc1`, 241 to 244 °C.
Molecule `N#Cc1cc(-c2ccccc2)[nH]c1Sc1ccncc1` came in with a melting point of 172 to 174 °C.
As to `CON=C(C)c1c(C)oc2c(-n3c(=O)cc(C(F)(F)F)n(C)c3=O)c(F)cc(Cl)c12`, the melting point is 65 to 67 °C.
On to `OCc1ccc(-c2ccccc2-c2nnnn2C(c2ccccc2)(c2ccccc2)c2ccccc2)cc1`, for which the melting point was 167 °C.
In the case of `COc1cc([N+](=O)[O-])c(C)cc1Br` it was 91 to 92 °C; in that of `CCCc1ccc(CCCOc2c(C)cc(-c3nnn(C)n3)cc2C)nn1`, 78 to 80 °C.
Regarding `CC(=O)OC[C@H]1O[C@@H]2[C@@H](Sc3ccc(Cl)cc3N2C)[C@@H](OC(C)=O)[C@@H]1OC(C)=O`, the melting point lay within 217 to 218 °C.
Molecule `CC(=O)OCCN1C2=NCCN2C(=O)c2ccccc21` returned a melting point of 124 to 126 °C.
The molecule `O=CC1CCc2[nH]c3ccc(F)cc3c2C1` (stereo not drawn) had a melting point of 96 to 98 °C.
As for `CC(C)n1c(/C=C/[C@H]2C[C@H](CC(=O)OC(C)(C)C)OC(C)(C)O2)c(-c2ccc(F)cc2)c(-c2ccccc2)c1C(N)=O`, the melting point lay in the range of 73 to 75 °C.
In the case of `CC(=NO)c1ccccc1Nc1c(Cl)ccc(C)c1Cl` it was 116 to 118 °C; in that of `Cc1cc2ncccc2c(=O)[nH]1`, 244 to 245 °C.
In the case of `CCOC(=O)c1ccc(-c2ccc(OC)c(-c3cccc([N+](=O)[O-])c3)c2)cc1` it was 106 to 108 °C; in that of `CC(NS(=O)(=O)c1ccc([N+](=O)[O-])cc1[N+](=O)[O-])c1ccccc1` (stereo not drawn), 160 to 161 °C.
To `C=CCOc1cc(N)c(Cl)cc1C(=O)O` belongs 136 to 137 °C; to `COC(=O)C1=CC=CC(C(=O)OC)(N(c2ccccc2)c2ccc(-c3ccc(N(c4ccccc4)C4(C(=O)OC)C=CC=C(C(=O)OC)C4)cc3)cc2)C1` (stereo not drawn), 136 to 141 °C.
Regarding `O=[N+]([O-])c1oc2ccc(N3Cc4ccccc4C3)cc2c1-c1ccccc1`, the melting point lay within 228 to 230 °C.
To `O=C(N[C@H](Cc1cccc(OC(F)(F)C(F)F)c1)[C@@H](O)c1ccnc(F)c1)c1cccc2c1C=CCCC2` (racemic) belongs 159 to 160 °C; to `O=C(O)CCC(=NOCc1ccc(OCc2cc(-c3ccccc3)on2)cc1)c1ccccc1`, 100 to 101 °C.
In the case of `O=C(O)COCc1nn(-c2ccc(Cl)cc2)c2c1CCC2` it was 122 to 123 °C.
In the case of `CC#CCOc1ccc(S(=O)(=O)NC)cc1` it was 78 to 80 °C; in that of `O=C(O)C1CNc2cc(C(F)(F)F)ccc2O1` (stereo not drawn), 105 to 107 °C.
With `CS(=O)(=O)N1CC(CN2CCCC2)Cc2ccccc21` (stereo not drawn), the melting point was in the range of 72 to 73 °C.
In turn, `Cc1cc(CCCOc2c(C)cc(-c3noc(C(N)=O)n3)cc2C)on1` gave a melting point of 177 to 178 °C.
To `CCOC(=O)Cn1nnc2cc(-c3ncc(C(F)(F)F)cc3Cl)ccc21` belongs 127 to 129 °C; to `CC[C@@H]1COC(=O)N1c1nc(-c2ccc(C#N)cc2)cs1`, 153 to 157 °C; to `COCCOC(=O)C1=C(C)NC(C)=C(C(=O)OC(C)C)C1c1ccccc1F` (stereo not drawn), 99 to 100 °C.
For `COc1ccc2c(OC(C)C)c(C(N)=O)sc2c1`, the melting point lay in the range of 164 to 166 °C.
To `COc1ccc(Cl)cc1C(=O)NCCc1ccc(-c2ccco2)c(S(N)(=O)=O)c1` belongs 195 °C; to `O=C(O)/C=C/C(=O)/C=C/c1ccc2c(c1)OCO2`, 170 to 173 °C.
In the case of `CCc1ccc(Oc2ccc(N3CCN(c4cccc(C)c4)CC3)nn2)cc1` it was 107 °C; in that of `COCCc1nc2c(N)nc3cc(OCc4ccccc4)ccc3c2n1CCCCNS(C)(=O)=O`, 144 to 148 °C; in that of `CCCc1c(C(=O)C(C)C)c2ccc(CC(=O)OC)cc2n1Cc1cc2c(cc1Cl)OCO2`, 119 to 120 °C.
In the case of `CCc1ccc(Nc2nc3cc(NC(=O)c4ccc(OC)c(OC)c4)ccc3o2)cc1` it was over 250 °C; in that of `Cc1ccc(Cl)cc1C1CC(=O)c2c(C)ccnc2C1` (stereo not drawn), 125 to 127 °C.
